{"source": "patent US20240009156A1", "about": "“METHODS AND FORMULATIONS FOR PRENATAL TREATMENT OF ALLAN-HERNDON-DUDLEY SYNDROME” (PriZm, LLC, priority 2022, published 2024)", "key": {"[1]": {"experiment": "T3 and T4 concentration in humans with MCT8 deficiency", "assay_type": "in vivo"}, "[2]": {"experiment": "Effect of DITPA on removal of gastrostomy tube (G-tube)", "assay_type": "in vivo, human", "conditions": "one child who started DITPA while having a G-tube"}, "[3]": {"test_system": "MCT8-mutant (mct82/2) larvae", "conditions": "cited from earlier work"}, "[4]": {"test_system": "MCT8 mutant (mct8−/−) zebrafish", "conditions": "cited from earlier work"}, "[5]": {"test_system": "MCT8-deficient (knockout) mice (Mct8KO)", "conditions": "cited from earlier work"}, "wild type mice": {"test_system": "wild type mice", "conditions": "T3-treated wild type mice; cited from earlier work"}, "[6]": {"conditions": "human, in vivo; cited from earlier work"}}}
{"smiles": "O=C(O)CCc1cc(I)c(Oc2ccc(O)cc2)c(I)c1", "note": "[DITPA, 3,5-diiodothyropropionic acid]", "values": [{"measurement": "T3 concentration", "setting": "[1]", "result": "reduction"}, {"measurement": "T4 concentration", "setting": "[1]", "result": "increase"}, {"measurement": "G-tube", "setting": "[2]", "result": "removed"}, {"measurement": "body weight", "setting": "[2]", "result": "gained weight"}, {"measurement": "myelin and axon outgrowth deficiencies", "setting": "[3]", "result": "restored the myelin and axon outgrowth deficiencies in mct82/2 larvae"}, {"measurement": "hypomyelination in the CNS", "setting": "[4]", "result": "TH analogs partially rescued the hypomyelination in the CNS of MCT8"}, {"measurement": "TH deficit", "setting": "[5]", "result": "corrects the TH deficit"}, {"measurement": "analysis of TH target genes: thyrotoxic state in the liver", "setting": "[5]", "result": "target genes revealed amelioration of the thyrotoxic state in the liver"}, {"measurement": "measurements and other parameters of TH action", "setting": "[5]", "result": "SRW101 normalized all measurements and other parameters of TH"}, {"measurement": "thyrotoxic effect in the liver", "setting": "[5]", "result": "without causing"}]}
{"smiles": "N[C@@H](Cc1cc(I)c(Oc2ccc(O)c(I)c2)c(I)c1)C(=O)O", "note": "[T3, triiodothyronine]", "values": [{"measurement": "TEE (total energy expenditure)", "setting": "wild type mice", "result": "mice showed increased food intake and TEE, similar to MCT8KO mice."}, {"measurement": "food intake", "setting": "wild type mice", "result": "mice showed increased food intake and TEE, similar to MCT8KO mice."}]}
{"smiles": "O=C(O)Cc1cc(I)c(Oc2ccc(O)c(I)c2)c(I)c1", "note": "[TRIAC, triiodothyroacetic acid]", "values": [{"measurement": "effects in pediatric subjects", "setting": "[6]", "result": "analog Triac has also been studied in pediatric subjects with positive"}]}
